Like-named read-outs stand apart in the source and are kept apart here.

Here are results for 39 compounds from patent US11691972B2, “Compounds for targeted degradation of BRD9” (C4 Therapeutics, Inc., priority 2020, dated 2023).

This test has as its target T1, BRD9 (Homo sapiens, UniProt Q9H8M2).
T1 sequence (Q9H8M2 1-597): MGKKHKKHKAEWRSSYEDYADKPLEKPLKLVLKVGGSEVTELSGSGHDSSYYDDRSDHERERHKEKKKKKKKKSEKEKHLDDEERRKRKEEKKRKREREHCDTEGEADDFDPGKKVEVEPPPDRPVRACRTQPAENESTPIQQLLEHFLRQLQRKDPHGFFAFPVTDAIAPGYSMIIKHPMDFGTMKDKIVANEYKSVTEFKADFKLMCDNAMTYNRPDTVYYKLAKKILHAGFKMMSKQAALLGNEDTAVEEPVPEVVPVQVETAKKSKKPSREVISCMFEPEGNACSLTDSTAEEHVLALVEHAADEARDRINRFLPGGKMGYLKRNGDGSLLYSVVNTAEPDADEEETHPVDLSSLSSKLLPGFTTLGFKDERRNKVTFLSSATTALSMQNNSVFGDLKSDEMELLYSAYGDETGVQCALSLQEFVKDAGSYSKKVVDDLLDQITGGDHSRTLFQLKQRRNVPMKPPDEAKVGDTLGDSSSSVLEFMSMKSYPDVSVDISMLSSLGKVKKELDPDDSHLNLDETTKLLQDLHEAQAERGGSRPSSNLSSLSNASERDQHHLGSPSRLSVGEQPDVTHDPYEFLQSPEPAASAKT
Kind of test: HiBiT BRD9 degradation assay in 293T.166 (BRD9-HiBiT) cells. Set-up: endogenously expressing BRD9 with HiBiT fusion tag via CRISPR; host or cells: 293T.166 (BRD9-HiBiT), also expressing LgBiT ectopically. The note with it: 293T.166 cells, 2.0 hours, class symbols, read-out: HiBiT-Degradation 293T.166 BRD9 2.0 hours (DC50). It counts as cell-based. In short, it runs like this:
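Luminescence from the Nano-Glo HiBiT lytic reagent quantified BRD9 loss after compounds (top 10 μM, half-log, 11 points, duplicates) were incubated 2 h at 37° C. with 10,000 293T.166 BRD9-HiBiT/LgBiT cells per well, with controls lacking compound or lacking reagent.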
(In general: HiBiT is a short tag that completes a luciferase, so light tracks the accessible tagged protein.)

Usually DC50 stands for the concentration giving 50% degradation. On to `COc1cc(-c2cn(C)c(=O)c3[nH]ncc23)cc(F)c1CN1CCN(C(=O)CN2CCC(c3ccc(N(C)C4CCC(=O)NC4=O)cc3)CC2)CC1` (stereo not drawn) [Compound 35], for which, under “Table 1”, the 50% degradation concentration (DC50) is less than 100 nM.
`COc1cc(-c2cn(C)c(=O)c3cnccc23)cc(Cl)c1C(=O)N1CCC(N(C)C(=O)N2CCC(c3ccc(NC4CCC(=O)NC4=O)cc3F)CC2)CC1` (stereo not drawn) [Compound 142]: the half-maximal degradation concentration (DC50) (Table 1) is less than 100 nM.
Turning to `COc1cc(-c2cn(C)c(=O)c3cnccc23)cc(F)c1C(=O)N1CCC(N(C)C(=O)N2CCC(c3ccc(NC4CCC(=O)NC4=O)cc3)CC2)CC1` (stereo not drawn) [Compound 132], the DC50 (Table 1) is less than 100 nM.
Turning to `COc1cc(-c2cn(C)c(=O)c3[nH]ncc23)cc(OC)c1CN1CCc2c(cccc2CN2CCC(c3ccc(NC4CCC(=O)NC4=O)cc3)C(F)(F)C2)C1` (stereo not drawn) [Compound 95, 3-[4-[1-[[2-[[2,6-dimethoxy-4-(6-methyl-7-oxo-1H-pyrazolo[3,4-c]pyridin-4-yl)phenyl]methyl]-3,4-dihydro-1H-isoquinolin-5-yl]methyl]-3,3-difluoro-4-piperidyl]anilino]piperidine-2,6-dione], the 50% degradation concentration (DC50) (Table 1) is less than 100 nM.
Turning to `CN(C(=O)N1CCC(c2ccc(NC3CCC(=O)NC3=O)cc2)CC1)C1CCN(C(=O)c2ccc(-c3cn(C)c(=O)c4[nH]ncc34)cc2OC(F)(F)F)CC1` (stereo not drawn) [Compound 130], the DC50 (Table 1) was less than 100 nM.
Same read-out and setting: next, `COc1cc(-c2cn(C)c(=O)c3cnccc23)cc(F)c1CN1CCC(N2CCN(c3ccc(NC4CCC(=O)NC4=O)cc3F)CC2)C(F)(F)C1` (stereo not drawn) [Compound 189]: less than 100 nM.
The same measure, in the same setting: next, `COc1cc(-c2cn(C)c(=O)c(C)c2C)cc(Cl)c1CN1CCC(C2CCN(c3ccc(NC4CCC(=O)NC4=O)cc3F)CC2)CC1` (stereo not drawn) [Compound 74]: less than 100 nM.
For `COc1cc(-c2cn(C)c(=O)c3[nH]ncc23)cc(OC)c1CNc1cccc(C(=O)N2CCC(c3ccc(NC4CCC(=O)NC4=O)cc3)CC2)c1` (stereo not drawn) [Compound 166, 3-[4-[1-[3-[[2,6-dimethoxy-4-(6-methyl-7-oxo-1H-pyrazolo[3,4-c]pyridin-4-yl)phenyl]methylamino]benzoyl]-4-piperidyl]anilino]piperidine-2,6-dione], the DC50 (Table 1) is less than 100 nM.
The same measure, in the same setting: next, `CN(C(=O)N1CCC(c2ccc(NC3CCC(=O)NC3=O)cc2)CC1)C1CCN(Cc2ccc(-c3cn(C)c(=O)c4[nH]ncc34)cc2OC(F)(F)F)CC1` (stereo not drawn) [Compound 116]: less than 100 nM; `COc1cc(-c2cn(C)c(=O)c(C)c2C)cc(Cl)c1C(=O)N1CCC(N(C)C(=O)N2CCC(c3ccc(NC4CCC(=O)NC4=O)cc3F)CC2)CC1` (stereo not drawn) [Compound 140]: less than 100 nM; `Cn1cc(-c2ccc(C(=O)N3CCC(N4CCN(c5ccc(NC6CCC(=O)NC6=O)cc5F)CC4)C(F)(F)C3)c(OC(F)(F)F)c2)c2ccncc2c1=O` (stereo not drawn) [Compound 227]: less than 100 nM.
Still for that read-out and setting: next, `COc1cc(-c2cn(C)c(=O)c(C)c2C)cc(OC)c1CN1CCN(C(=O)CN2CCC(c3ccc(NC4CCC(=O)NC4=O)cc3)CC2)CC1` (stereo not drawn) [Compound 30]: less than 100 nM; `Cn1cc(-c2ccc(CN3CCC(N4CCN(c5ccc(NC6CCC(=O)NC6=O)cc5F)CC4)C(F)(F)C3)c(OC(F)(F)F)c2)c2ccncc2c1=O` (stereo not drawn) [Compound 193]: less than 100 nM; `COc1cc(-c2cn(C)c(=O)c(C)c2C)cc(Cl)c1CN1CCC(C2CCN(c3ccc(NC4CCC(=O)NC4=O)cc3Cl)CC2)CC1` (stereo not drawn) [Compound 76]: less than 100 nM.
Same read-out and setting: for `COc1cc(-c2cn(C)c(=O)c3cnccc23)cc(OC)c1CN1CCN(C(=O)CC2CCN(c3ccc(NC4CCC(=O)NC4=O)cc3C(F)(F)F)CC2)CC12CC2` (stereo not drawn) [Compound 59] the value was less than 100 nM; for `COc1cc(-c2cn(C)c(=O)c3cnccc23)cc(Cl)c1CN1CCC(N2CCC(c3ccc(NC4CCC(=O)NC4=O)cc3F)CC2)C(F)(F)C1` (stereo not drawn) [Compound 201], less than 100 nM; for `COc1cc(-c2cn(C)c(=O)c3[nH]ncc23)cc(OC)c1CN1CC[C@@H](NC(=O)CN2CCC(c3ccc(NC4CCC(=O)NC4=O)cc3)CC2)C1` (stereo in doubt) [Compound 69, N-[1-[[2,6-dimethoxy-4-(6-methyl-7-oxo-1H-pyrazolo[3,4-c]pyridin-4-yl)phenyl]methyl]pyrrolidin-3-yl]-2-[4-[4-[(2,6-dioxo-3-piperidyl)amino]phenyl]-1-piperidyl]acetamide], 100 to 500 nM.
As for `COc1cc(-c2cn(C)c(=O)c3[nH]ncc23)c(Cl)cc1CN1CCN(C(=O)CN2CCC(c3ccc(NC4CCC(=O)NC4=O)cc3)CC2)CC1` (stereo not drawn) [Compound 19], the DC50 (Table 1) was less than 100 nM.
Still for that read-out and setting: for `COc1cc(CN2CCN(C(=O)CN3CCC(c4ccc(NC5CCC(=O)NC5=O)cc4)CC3)CC2)c(OC(C)C)cc1-c1cn(C)c(=O)c2[nH]ncc12` (stereo not drawn) [Compound 26] the value was less than 100 nM; for `COc1cc(-c2cn(C)c(=O)c3cnccc23)cc(F)c1C(=O)N1CCC(N2CCN(c3ccc(NC4CCC(=O)NC4=O)cc3F)CC2)C(F)(F)C1` (stereo not drawn) [Compound 226], less than 100 nM; for `COc1cc(-c2cn(C)c(=O)c3cnccc23)cc(OC)c1C(=O)N1CCC(N2CCN(c3ccc(NC4CCC(=O)NC4=O)cc3F)CC2)C(F)(F)C1` (stereo not drawn) [Compound 225], less than 100 nM.
The same measure, in the same setting: for `COc1cc(-c2cn(C)c(=O)c(C)c2C)cc(Cl)c1C=C1CCN(C(=O)CC2CCN(c3ccc(NC4CCC(=O)NC4=O)cc3F)CC2)CC1` (stereo not drawn) [Compound 163] the value was less than 100 nM.
For `COc1cc(-c2cn(C)c(=O)c(C)c2C)cc(Cl)c1CN1CCC(C2CCN(c3ccc(NC4CCC(=O)NC4=O)nc3)CC2)C(F)(F)C1` (stereo not drawn) [Compound 273], the half-maximal degradation concentration (DC50) (Table 2) is less than 100 nM.
Take `COc1cc(-c2cn(C)c(=O)c(C)c2C)cnc1CN1CCC(C2CCN(c3ccc(NC4CCC(=O)NC4=O)cc3F)CC2)CC1` (stereo not drawn) [Compound 82]: where the note is “Table 1”, the 50% degradation concentration (DC50) was less than 100 nM.
On the same count and under the same terms, for `COc1cc(-c2cn(C)c(=O)c3[nH]ncc23)cc(Cl)c1CN1CCC(N2CCN(c3ccc(NC4CCC(=O)NC4=O)cc3F)CC2)C(F)(F)C1` (stereo not drawn) [Compound 183] the value was less than 100 nM; for `COc1cc(-c2cn(C)c(=O)c3ccccc23)cc(OC)c1CN1C2CCC1CN(C(=O)CC1CCN(c3ccc(NC4CCC(=O)NC4=O)cc3C(F)(F)F)CC1)C2` (stereo not drawn) [Compound 64], less than 100 nM; for `Cn1cc(-c2ccc(CN3CCN(C(=O)CC4CCN(c5ccc(NC6CCC(=O)NC6=O)cc5)CC4)CC3)c(OC(F)(F)F)c2)c2cn[nH]c2c1=O` (stereo not drawn) [Compound 51], less than 100 nM.
On the same count and under the same terms, next, `Cc1c(-c2ccc(C(=O)N3CCC(N4CCN(c5ccc(NC6CCC(=O)NC6=O)cc5F)CC4)C(F)(F)C3)c(OC(F)(F)F)c2)cn(C)c(=O)c1C` (stereo not drawn) [Compound 223]: less than 100 nM; `Cc1c(-c2ccc(C(=O)N3CCC(C4CCN(c5ccc(NC6CCC(=O)NC6=O)cc5F)CC4)CC3)c3[nH]ccc23)cn(C)c(=O)c1C` (stereo not drawn) [Compound 217]: less than 100 nM; `COc1cc(-c2cn(C)c(=O)c(C)c2C)cc(F)c1CN1CCC(C2CCN(c3ccc(NC4CCC(=O)NC4=O)cc3C(F)(F)F)CC2)CC1` (stereo not drawn) [Compound 86]: less than 100 nM.
On the same count and under the same terms, next, `COc1cc(-c2cn(C)c(=O)c3[nH]ncc23)cc(Cl)c1CN1CCC(N(C)C(=O)N2CCC(c3ccc(NC4CCC(=O)NC4=O)cc3)CC2)CC1` (stereo not drawn) [Compound 117]: less than 100 nM; `COc1cc(-c2cn(C)c(=O)c3[nH]ncc23)cc(Cl)c1CN1CCC(C2CCN(c3ccc(NC4CCC(=O)NC4=O)cc3)CC2)CC1` (stereo not drawn) [Compound 71]: less than 100 nM; `COc1cc(-c2cn(C)c(=O)c(C)c2C)cc(OC)c1C(=O)N1CCc2c(CC3CCN(c4ccc(NC5CCC(=O)NC5=O)cc4C(F)(F)F)CC3)cccc2C1` (stereo not drawn) [Compound 238]: less than 100 nM.
On to `COc1cc(-c2cn(C)c(=O)c3cnccc23)cc(Cl)c1C(=O)N1CCC(N2CCC(c3ccc(NC4CCC(=O)NC4=O)cc3)C(F)(F)C2)CC1` (stereo not drawn) [Compound 228], for which the 50% degradation concentration (DC50) (Table 1) is less than 100 nM.
On the same count and under the same terms, next, `Cn1cc(-c2ccc(C(=O)N3CCC(C4CCN(c5ccc(NC6CCC(=O)NC6=O)cc5F)CC4)CC3)c(OC(F)(F)F)c2)c2ccncc2c1=O` (stereo not drawn) [Compound 211]: less than 100 nM.
`COc1cc(-c2cn(C)c(=O)c3cnccc23)cc(Cl)c1CN1C2CCC1CN(C(=O)CC1CCN(c3ccc(NC4CCC(=O)NC4=O)cc3F)CC1)C2` (stereo not drawn) [Compound 271]: the DC50 (Table 2) was less than 100 nM.
With `CN(C(=O)N1CCC(c2ccc(NC3CCC(=O)NC3=O)cc2F)CC1)C1CCN(C(=O)c2ccc(-c3cn(C)c(=O)c4cnccc34)cc2OC(F)(F)F)CC1` (stereo not drawn) [Compound 138], the DC50 (Table 1) was less than 100 nM.
Still for that read-out and setting: for `Cc1c(-c2ccc(C(=O)N3CCC(N(C)C(=O)N4CCC(c5ccc(NC6CCC(=O)NC6=O)cc5F)CC4)CC3)c(OC(F)(F)F)c2)cn(C)c(=O)c1C` (stereo not drawn) [Compound 143] the value was less than 100 nM; for `COc1cc(-c2cn(C)c(=O)c3[nH]ncc23)cc(F)c1CN1CCN(C(=O)CN2CCC(c3ccc(NC4CCC(=O)NC4=O)cc3)CC2)CC1` (stereo not drawn) [Compound 9], less than 100 nM.
